# Measured values as given in ChEMBL document CHEMBL1155546, “Rapid synthesis of an array of trisubstituted urea-based soluble epoxide hydrolase inhibitors facilitated by a novel solid-phase method” (Bioorg Med Chem Lett, 2010).
# Assays:
# Cytochrome P450 2J2 = biological target: T1, Cytochrome P450 2J2 (Homo sapiens, UniProt P51589); assay: Inhibition of CYP2J2
# T1 sequence (P51589 whole entry): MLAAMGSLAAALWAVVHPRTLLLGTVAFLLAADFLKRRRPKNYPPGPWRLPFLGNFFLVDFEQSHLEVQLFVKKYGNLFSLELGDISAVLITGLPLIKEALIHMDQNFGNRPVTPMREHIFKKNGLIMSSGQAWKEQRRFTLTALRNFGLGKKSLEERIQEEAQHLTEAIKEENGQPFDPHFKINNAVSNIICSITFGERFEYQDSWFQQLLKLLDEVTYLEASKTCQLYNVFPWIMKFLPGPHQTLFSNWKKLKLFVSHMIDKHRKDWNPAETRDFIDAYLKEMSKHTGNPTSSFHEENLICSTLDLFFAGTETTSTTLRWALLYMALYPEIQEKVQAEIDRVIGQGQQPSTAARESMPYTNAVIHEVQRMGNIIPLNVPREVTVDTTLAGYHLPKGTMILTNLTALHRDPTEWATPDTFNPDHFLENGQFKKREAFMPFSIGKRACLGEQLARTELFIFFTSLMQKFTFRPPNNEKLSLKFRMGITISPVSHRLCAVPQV
# [1] = biological target: T2, Bifunctional epoxide hydrolase 2 (Homo sapiens, UniProt P34913); assay: Inhibition of human soluble epoxide hydrolase
# T2 sequence (P34913 whole entry): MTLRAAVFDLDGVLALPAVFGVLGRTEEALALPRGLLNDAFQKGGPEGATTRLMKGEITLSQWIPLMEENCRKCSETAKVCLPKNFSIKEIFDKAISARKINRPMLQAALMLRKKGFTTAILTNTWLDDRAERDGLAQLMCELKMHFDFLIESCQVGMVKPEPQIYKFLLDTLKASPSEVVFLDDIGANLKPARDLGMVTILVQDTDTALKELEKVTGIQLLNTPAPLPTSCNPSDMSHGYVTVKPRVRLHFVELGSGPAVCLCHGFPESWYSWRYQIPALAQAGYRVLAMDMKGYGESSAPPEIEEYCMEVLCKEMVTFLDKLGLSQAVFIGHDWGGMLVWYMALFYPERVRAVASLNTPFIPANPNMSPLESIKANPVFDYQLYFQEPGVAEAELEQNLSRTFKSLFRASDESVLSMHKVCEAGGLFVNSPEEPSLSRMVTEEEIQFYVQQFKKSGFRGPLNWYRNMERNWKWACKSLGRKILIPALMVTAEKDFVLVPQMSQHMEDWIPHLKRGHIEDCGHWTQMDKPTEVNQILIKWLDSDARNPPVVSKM
# [2] = Half life in human liver microsome; assay type: ADME; settings: liver microsomes
# [3] = Half life in mouse liver microsome; assay type: ADME; settings: liver microsomes
# Cytochrome P450 2C9 = Cytochrome P450 2C9 (Homo sapiens, UniProt P11712); assay: Inhibition of CYP2C9; assay type: ADME
# Cytochrome P450 2C9, sequence (P11712 whole entry): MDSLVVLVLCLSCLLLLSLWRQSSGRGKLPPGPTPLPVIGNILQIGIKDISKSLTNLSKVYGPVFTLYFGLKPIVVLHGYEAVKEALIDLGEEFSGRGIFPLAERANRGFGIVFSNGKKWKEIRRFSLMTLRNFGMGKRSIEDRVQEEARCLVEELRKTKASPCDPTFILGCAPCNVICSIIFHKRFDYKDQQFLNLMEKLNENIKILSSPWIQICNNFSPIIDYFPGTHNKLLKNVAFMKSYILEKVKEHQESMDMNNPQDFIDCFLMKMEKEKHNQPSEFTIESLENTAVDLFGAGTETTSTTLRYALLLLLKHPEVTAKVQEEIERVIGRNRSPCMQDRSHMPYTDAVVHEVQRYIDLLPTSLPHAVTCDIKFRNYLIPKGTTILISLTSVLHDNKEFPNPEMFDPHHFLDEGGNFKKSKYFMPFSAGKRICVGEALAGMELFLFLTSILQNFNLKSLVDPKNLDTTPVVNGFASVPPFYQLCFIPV
# [4] = biological target: T2, Bifunctional epoxide hydrolase 2; assay: Inhibition of human soluble epoxide hydrolase assessed as [2-3H]trans-1,3-diphenyl propylene oxide hydrolysis by cellular assay
IC50 [1],half-life [2],half-life [3],IC50 (Cytochrome P450 2C9),IC50 [4],Structure (SMILES),IC50 (Cytochrome P450 2J2)
4 nM,54 min,10 min,10200 nM,40 nM,O=C(NCc1ccccc1OC(F)(F)F)N1CCC(Oc2ncccn2)CC1,2000 nM
1 nM,7 min,2 min,2900 nM,13 nM,O=C(NCCC(c1ccc(F)cc1)c1ccc(F)cc1)N1CCC(Oc2cnccn2)CC1,
3 nM,2 min,2 min,8100 nM,4 nM,O=C(NCCC(c1ccc(F)cc1)c1ccc(F)cc1)N1CCC(c2cnccn2)C1 (stereo not drawn),
9 nM,42 min,25 min,100 nM,22 nM,O=C(NCc1ccc(Cl)cc1Cl)N1CCC(Oc2ccncc2)CC1,2700 nM

Structure (SMILES),IC50 [1],half-life [2],half-life [3],IC50 (Cytochrome P450 2C9),IC50 [4],IC50 (Cytochrome P450 2J2)
O=C(NCc1ccccc1OC(F)(F)F)N1CCC(Oc2ccncc2)CC1,14 nM,34 min,42 min,800 nM,,10000 nM
O=C(NCc1ccccc1OC(F)(F)F)N1CCC(c2ccncc2)C1 (stereo not drawn),7 nM,23 min,42 min,300 nM,76 nM,10000 nM
